Key:
LNCaP tumors [1] = experiment: Tumor harvest at necropsy and direct scintillation counting of tumor radioactivity; type: in vivo, mice; settings: Day 3 (72 hours) tumor harvest
Text: The dotted line represents the summation of the counts in the 617-Lu^177 plus the J591-Lu^177 tumors. […] To confirm the accuracy of this experiment which was based on […] imaging, determinations were done by tumor harvest at necropsy followed by direct counting of the radioactivity within the previously imaged tumors and calculating counts per mg of tumor.
At the Day 3 tumor harvest, the mean counts per mg tumor in each of the groups is shown in the table below (and FIG. 2) further confirming the imaging results.
In this animal study, which is a continuation of the imaging study described in Example 1, when the imaging was completed at 72 hours, the animals were necropsied, the tumors harvested, weighed and counted in a scintillation counter to derive the amount of radioactivity per mg (cpm/mg) of tumor. The tumors treated with J591-Lu^177 had 2.2-fold the counts of those tumors that had gotten PSMA-617-Lu^177 alone (FIG. 2). The tumors treated with the combination had counts 48% greater than the sum of each of its individual components, meeting the definition of synergy (FIG. 2). The physical counting of the tumor radioactivity confirmed the results obtained by imaging.

LNCaP tumors [2] = experiment: SPECT/CT imaging of radioactivity within tumors after injection; type: in vivo, mice; settings: for activity concentration in tumor (imaging): mean of group, LNCaP tumors in mice
Method: In this animal study, three groups of mice were implanted with LNCaP tumors (in Matrigel) with 6-8 tumors per group. After the tumors were established, one group was injected with J591-Lu^177, a 2nd group with PSMA-617-Lu^177 and a 3rd group got both PSMA617-Lu^177 and J591-Lu^177.
Radiolabeling both PSMA-617 and J591 allowed both to be tracked individually as well as their total when combined. All mice were imaged in a Siemens Inveon dedicated animal multimodality SPECT/CT. Coaxial CT images were acquired for anatomical and attenuation information prior to each SPECT acquisition to measure the radioactivity within the tumors at the 1, 4, 24 and 72 hour time points after injection. SPECT images were reconstructed using the Siemens OSEM algorithm with corrections for scatter, attenuation, decay, and ^177Lu emission spectrum. The mean number of counts within the tumors in each group and time point was calculated and plotted. THe imaging data measured an activity concentration in Bq/mL of tumor: […]

- activity concentration in tumor (imaging) (LNCaP tumors [2]; 1 hr after injection): 29.55 Bq/mL
- activity concentration in tumor (imaging) (LNCaP tumors [2]; 4 hr after injection): 30.62 Bq/mL
- activity concentration in tumor (imaging) (LNCaP tumors [2]; 24 hr after injection): 27.1 Bq/mL
- activity concentration in tumor (imaging) (LNCaP tumors [2]; 72 hr after injection): 12.48 Bq/mL
Compound: O=C(O)CC[C@H](NC(=O)N[C@@H](CCCCNC(=O)[C@H](Cc1ccc2ccccc2c1)NC(=O)[C@H]1CC[C@H](CNC(=O)CN2CCN(CC(=O)O)CCN(CC(=O)O)CCN(CC(=O)O)CC2)CC1)C(=O)O)C(=O)O [PSMA-617-Lu^177]
- Mean cpm/mg tumor (LNCaP tumors [1]): 7.536 cpm/mg
- course of tumor counts over time (imaging, in words) (LNCaP tumors [2]; 1 to 72 hour, LNCaP tumors): high uptake at 1 hour that then diminished over time
